A word on the LD50: it is the dose expected to kill half of the subjects tested.

Series [1] can be described thus: acute LD50 in mice. As to conditions: mouse, in vivo.
Series [2] concerns Sarcoma 180 (S-180). Kind of series: inhibition of growth of transplantable Sarcoma 180 (S-180) tumors, C/T ratio. The series is classed as in vivo. As to conditions: S-180 in mice, once daily for 8 days, ratio greater than 2 = active.

As for `CN(C)CCn1c(=O)c2[nH]c3ccc(Cl)cc3c2c2ccccc21` [10-chloro-5-(2-dimethylaminoethyl)-7H-indolo[2,3-c]quinolin-6(5H)-one], the LD50 in series [1] (ip) is over 2000 mg/kg; in series [1] (po) it was over 4000 mg/kg. The “C/T ratio (average tumor weight of untreated controls / treated)” value is recorded as 3.50 in series [2] (100 mg/kg i.p.) and 3.05 in series [2] (100 mg/kg orally).

The values above are taken from patent publication US4014883A, “Indoloquinolines, intermediates and processes” (Hoffmann-La Roche Inc., priority 1975, dated 1977).
